Numbers after ± are expanded uncertainties.
Legend:
[1] = refractive index (Na D-line) (dimensionless); settings: 293.15 K; 101.33 kPa; Liquid; Standard Abbe refractometry
[2] = Liquid; for mass density: 293.15 K, 101.33 kPa, Pycnometric method; for Normal boiling temperature: Fischer Boiling Apparatus

SMILES	refractive index [1]	mass density [2]	Normal boiling temperature [2]
CCCCCCCCCCCO [1-undecanol]	1.4402 ± 0.0005	829.2 ± 0.74 kg/m3	245.1 ± 1 °C
O=CO [formic acid]	1.3721 ± 0.0005	1218.5 ± 1.5 kg/m3	101.1 ± 1 °C
CCCCC(=O)O [pentanoic acid]	1.4088 ± 0.0004	932.5 ± 0.4 kg/m3	186.00 ± 1 °C
O [water]	1.3324 ± 0.0003	999.9 ± 0.26 kg/m3	100.1 ± 1 °C
CCC(=O)O [propanoic acid]	1.3808 ± 0.0004	988.1 ± 0.43 kg/m3	141.1 ± 1 °C
CC(=O)O [acetic acid]	1.371 ± 0.0004	1044.3 ± 0.47 kg/m3	117.80 ± 1 °C

From the NIST ThermoML archive (doi:10.1016/j.fluid.2012.06.020)
